US20170326356A1, “METHODS FOR TREATING PSYCHIATRIC DISORDERS” (priority 2016, published 2017)
Entries after “also recorded” stand apart in the source; their conditions may differ.

Assays:
[1] = test system: offspring of pregnant dams; assay: Analysis of cortical patches (absence of SATB2 or TBR1 expression) in offspring after maternal immune activation; type: in vivo, mice
Procedure: (§1) Mice were mated overnight and females were checked daily for the presence of seminal plugs, noted as embryonic day 0.5 (E0.5). On E12.5, pregnant female mice were weighed and injected with a single dose (20 mg/kg i.p.) of poly(I:C) (Sigma Aldrich, USA) or PBS vehicle. Each dam was returned to its cage and left undisturbed until the birth of its litter. All pups remained with the mother until weaning on postnatal day 21 (P21), at which time mice were group housed at a maximum of 5 per cage with same-sex littermates. For checking the effect of poly(I:C) administration at different time points during pregnancy, the present inventors injected poly(I:C) into pregnant dams on E12.5, E15.5, or E18.5.
For cryosectioning, animals were intracardially perfused, and the brain was dissected out, fixed with 4% paraformaldehyde in PBS overnight at 4° C., and cryoprotected in 30% sucrose solution. The left hemisphere was marked with a needle and the sections were coronally sliced at 40 μm using a cryostat (Leica, USA). For vibratome sectioning, animals were intracardially perfused, and the brain was fixed with 4% paraformaldehyde in PBS overnight at 4° C. The brains were coronally sliced at 50 μm with a Leica VT1000S vibratome (Leica, USA).
Slices were permeabilized with blocking solution containing 0.4% Triton X-100 and 2% goat serum in PBS for 1 h at room temperature (RT) and then incubated with anti-rabbit-TBR1 (ab31940, Abcam, USA), anti-mouse-SATB2 (ab51502, Abcam, USA), anti-rabbit-PV (PV27, Swant, Switzerland), anti-rabbit-VIP (20077, Immunostar, USA), anti-mouse-NeuN (MAB377X, Millipore, USA), or anti-rabbit-c-Fos (sc-7270, Santa Cruz, USA) antibodies overnight at 4° C. […]
Cortical patches were identified by the absence of SATB2 or TBR1 expression. Spatial locations of the cortical patches were determined based on their distance from the midline of the brain and the layer structures of the cortex. […] The size of the cortical patches was calculated using Zen software (Carl Zeiss, Germany).

[2] = test system: offspring of pregnant dams; assay: Ultrasonic vocalizations of pups; type: in vivo, mice
Procedure: as §1
On postnatal day 9, mouse pup ultrasonic vocalizations (USVs) were detected for 3 min using an Ultra-Sound Gate CM16/CMPA microphone (AviSoft, Germany) and SAS Prolab software (AviSoft, Germany) in a sound attenuation chamber under stable temperature (19-22° C.) and light control (15 lux).

How did the “offspring with cortical patches in the S1” value (shortened to “offspring”) ([1]; dams injected at E12.5, 20 mg/kg i.p.) turn out when “polyinosinic:polycytidylic acid [poly(I:C)]” was run?
Its value is 77%.

What about the “offspring” value ([1]; dams injected at E15.5) of the same substance?
The value was 13%.

What about the “offspring” value ([1]; dams injected at E18.5) of the same substance?
The value was “none”.

What about the “USV calls made by pups upon separation from mothers at P9” value ([2]; dams injected at E12.5, versus PBS offspring) of the same substance?
Its value is “emitted more ultrasonic vocalization (USV) calls”.

And the “USV calls made by pups upon separation from mothers at P9” value ([2]; dams injected at E15.5 or E18.5)?
Its value is “This finding was not observed; also recorded: such an increase was not observed”.
